Experimental data as given in patent publication US20260297109A1, “COMPOUNDS AS SUMO ACTIVATING ENZYME INHIBITORS” (WIGEN BIOMEDICINE TECHNOLOGY (SHANGHAI) CO., LTD., priority 2022, published 2026).

Molecular target: T1, SAE (Homo sapiens, UniProt Q9UBT2)
T1 construct: endogenous in cells; host or cells: HCT116
T1 sequence (Q9UBT2 1-640): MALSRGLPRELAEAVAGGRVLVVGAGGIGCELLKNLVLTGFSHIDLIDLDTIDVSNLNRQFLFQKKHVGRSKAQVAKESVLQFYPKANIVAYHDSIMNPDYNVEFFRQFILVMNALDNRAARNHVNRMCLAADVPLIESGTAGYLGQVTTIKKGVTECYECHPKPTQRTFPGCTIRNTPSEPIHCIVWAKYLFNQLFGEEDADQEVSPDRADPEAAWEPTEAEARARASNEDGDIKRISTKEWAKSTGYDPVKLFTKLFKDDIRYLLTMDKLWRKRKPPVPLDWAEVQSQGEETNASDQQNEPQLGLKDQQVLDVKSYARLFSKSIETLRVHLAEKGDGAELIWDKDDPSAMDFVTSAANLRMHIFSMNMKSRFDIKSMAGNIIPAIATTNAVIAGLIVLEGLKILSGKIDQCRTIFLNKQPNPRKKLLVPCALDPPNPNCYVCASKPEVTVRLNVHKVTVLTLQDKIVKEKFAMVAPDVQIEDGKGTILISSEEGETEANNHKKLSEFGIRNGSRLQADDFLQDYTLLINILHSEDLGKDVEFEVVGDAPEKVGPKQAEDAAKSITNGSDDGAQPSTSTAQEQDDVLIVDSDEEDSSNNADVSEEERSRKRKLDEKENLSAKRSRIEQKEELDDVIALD
T1 sequence (Q9UBE0 1-346): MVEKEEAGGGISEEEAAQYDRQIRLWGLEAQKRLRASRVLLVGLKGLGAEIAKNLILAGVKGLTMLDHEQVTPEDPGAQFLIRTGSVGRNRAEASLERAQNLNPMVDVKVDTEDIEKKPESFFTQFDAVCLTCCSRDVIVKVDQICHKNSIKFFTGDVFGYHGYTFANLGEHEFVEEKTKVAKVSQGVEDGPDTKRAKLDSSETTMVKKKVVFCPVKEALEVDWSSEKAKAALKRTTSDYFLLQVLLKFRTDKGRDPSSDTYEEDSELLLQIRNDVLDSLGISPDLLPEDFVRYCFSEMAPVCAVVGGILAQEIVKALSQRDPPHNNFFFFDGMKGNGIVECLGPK
Test: SUMO IF: in vitro inhibitory activity assay against SAE in HCT116 cells (SUMO-2/3 immunofluorescence)
Format: cell-based
Settings: class symbols, 6 h at 37° C.
In short: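 HCT116 cells were treated with compound for 6 h at 37 °C, then PFA-fixed, Triton-permeabilised and BSA-blocked. They were stained overnight at 4 °C with anti-SUMO-2/3 (18H8) rabbit mAb (1:400), then with FITC anti-rabbit IgG (1:300). Fluorescence versus DMSO gave inhibition rate and IC50.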

Compound | IC50 [µM]
N#Cc1ccc2c(c1)[C@]1(CCCc3sc(C(=O)c4cncnc4N[C@H]4C[C@H](O)[C@@H](COS(N)(=O)=O)[C@@H]4F)cc31)OCC2 [Compound 715] | > 0.2
NS(=O)(=O)OC[C@H]1[C@H](F)[C@@H](Nc2ncncc2C(=O)c2cc3c(s2)CCCC32OCCc3ccc(F)cc32)C[C@@H]1O (stereo partly drawn) [Compound 711] | 0.05 to 0.2
CN1Cc2sc(C(=O)c3cncnc3N[C@H]3C[C@H](O)[C@@H](COS(N)(=O)=O)[C@@H]3F)cc2C2(C1)OCCc1ccc(Cl)cc12 (stereo partly drawn) [Compound 723] | ≤ 0.05
NS(=O)(=O)OC[C@H]1[C@H](F)[C@@H](Nc2ncncc2C(=O)c2cc3c(s2)CCCC32NCCc3cc(Cl)c(Cl)cc32)C[C@@H]1O (stereo partly drawn) [Compound 112] | 0.05 to 0.2
NS(=O)(=O)OC[C@H]1[C@H](F)[C@@H](Nc2ncncc2C(=O)c2cc3c(s2)COC[C@]32NCCc3cc(F)c(Cl)cc32)C[C@@H]1O [Compound 572] | 0.05 to 0.2
NS(=O)(=O)OC[C@H]1[C@H](F)[C@@H](Nc2ncncc2C(=O)c2cc3c(s2)C=C[C@]32NCCc3ccc(F)cc32)C[C@@H]1O [Compound 346] | ≤ 0.05
NS(=O)(=O)OC[C@H]1[C@H](F)[C@@H](Nc2ncncc2C(=O)c2cc3c(s2)C=CC32OCCc3ccc(F)cc32)C[C@@H]1O (stereo partly drawn) [Compound 756] | 0.05 to 0.2
Cc1sc(C(=O)c2cncnc2N[C@H]2C[C@H](O)[C@@H](COS(N)(=O)=O)[C@H]2F)cc1C1NCCc2cc(Cl)c(Cl)cc21 (stereo partly drawn) [Compound 247] | 0.05 to 0.2
N#Cc1ccc2c(c1)[C@@]1(CCc3sc(C(=O)c4cncnc4N[C@H]4C[C@H](O)[C@@H](COS(N)(=O)=O)[C@@H]4F)cc31)NCC2 [Compound 138] | 0.05 to 0.2
NS(=O)(=O)OC[C@H]1[C@H](F)[C@@H](Nc2ncncc2C(=O)c2cc3c(s2)CCC[C@@]32NCCc3cnc(Cl)cc32)C[C@@H]1O [Compound 598] | > 0.2
NS(=O)(=O)OC[C@H]1[C@H](F)[C@@H](Nc2ncncc2C(=O)c2cc3c(s2)C=C[C@]32OCCc3ccc(Cl)cc32)C[C@@H]1O [Compound 761] | ≤ 0.05
Cc1ccc2c(c1)[C@@]1(CCc3sc(C(=O)c4cncnc4N[C@H]4C[C@H](O)[C@@H](COS(N)(=O)=O)[C@@H]4F)cc31)NCC2 [Compound 687] | 0.05 to 0.2
NS(=O)(=O)OC[C@H]1[C@H](F)[C@@H](Nc2ncncc2C(=O)c2cc3c(s2)CCC[C@]32NCCc3cc(Cl)ncc32)C[C@@H]1O [Compound 679] | 0.05 to 0.2
N#Cc1ccc2c(c1)[C@@]1(CCCc3sc(C(=O)c4cncnc4N[C@H]4C[C@H](O)[C@@H](COS(N)(=O)=O)[C@@H]4F)cc31)NCC2 [Compound 96] | ≤ 0.05
NS(=O)(=O)OC[C@H]1[C@H](F)[C@@H](Nc2ncncc2C(=O)c2cc3c(s2)C(=O)C[C@@]32NCCc3ccc(Cl)cc32)C[C@@H]1O [Compound 631] | > 0.2
NS(=O)(=O)OC[C@H]1[C@H](F)[C@@H](Nc2ncncc2C(=O)c2cc3c(s2)CCC32OCCc3ccccc32)C[C@@H]1O (stereo partly drawn) [Compound 744] | > 0.2
CC1Cc2ccc(Cl)cc2[C@]2(CCCc3sc(C(=O)c4cncnc4N[C@H]4C[C@H](O)[C@@H](COS(N)(=O)=O)[C@@H]4F)cc32)N1 (stereo partly drawn) [Compound 1024] | > 0.2
NS(=O)(=O)OC[C@H]1[C@H](F)[C@@H](Nc2ncncc2C(=O)c2cc3c(s2)OC[C@]32NCCc3ccc(Cl)cc32)C[C@@H]1O [Compound 147] | 0.05 to 0.2
NS(=O)(=O)OC[C@H]1[C@H](F)[C@@H](Nc2ncncc2C(=O)c2cc3c(s2)CNCC32NCCc3ccc(Cl)cc32)C[C@@H]1O (stereo partly drawn) [Compound 582] | 0.05 to 0.2
CC1(C)Cc2ccc(Cl)cc2[C@@]2(CCCc3sc(C(=O)c4cncnc4N[C@H]4C[C@H](O)[C@@H](COS(N)(=O)=O)[C@@H]4F)cc32)N1 [Compound 1031] | 0.05 to 0.2
NS(=O)(=O)OC[C@H]1[C@H](F)[C@@H](Nc2ncncc2C(=O)c2cc3c(s2)CN(C2CC2)CC32NCCc3ccc(Cl)cc32)C[C@@H]1O (stereo partly drawn) [Compound 579] | ≤ 0.05

Compound | IC50 [µM]
NS(=O)(=O)OC[C@H]1[C@H](F)[C@@H](Nc2ncncc2C(=O)c2cc3c(s2)CC=C[C@]32NCCc3ccc(Cl)cc32)C[C@@H]1O [Compound 681] | ≤ 0.05
CN1Cc2sc(C(=O)c3cncnc3N[C@H]3C[C@H](O)[C@@H](COS(N)(=O)=O)[C@@H]3F)cc2C2(C1)OCCc1ccccc12 (stereo partly drawn) [Compound 717] | 0.05 to 0.2
CN1Cc2sc(C(=O)c3cncnc3N[C@H]3C[C@H](O)[C@@H](COS(N)(=O)=O)[C@@H]3F)cc2[C@]2(C1)OCCc1ccc(Cl)cc12 [Compound 725] | ≤ 0.05
NS(=O)(=O)OC[C@H]1[C@H](F)[C@@H](Nc2ncncc2C(=O)c2cc3c(s2)COC[C@@]32NCCc3c(F)cc(Cl)cc32)C[C@@H]1O [Compound 574] | > 0.2
[2H]C1(c2cc(C(=O)c3cncnc3N[C@H]3C[C@H](O)[C@@H](COS(N)(=O)=O)[C@@H]3F)sc2C)NCCc2ccc(Cl)cc21 (stereo partly drawn) [Compound 269] | 0.05 to 0.2
NS(=O)(=O)OC[C@H]1[C@H](F)[C@@H](Nc2ncncc2C(=O)c2cc3c(s2)CSCC32NCCc3ccc(F)cc32)C[C@@H]1O (stereo partly drawn) [Compound 297] | ≤ 0.05
CC(C)N1Cc2sc(C(=O)c3cncnc3N[C@H]3C[C@H](O)[C@@H](COS(N)(=O)=O)[C@@H]3F)cc2[C@]2(C1)OCCc1ccc(F)cc12 [Compound 734] | ≤ 0.05
N#Cc1cc2c(cc1Cl)[C@@]1(CCc3sc(C(=O)c4cncnc4N[C@H]4C[C@H](O)[C@@H](COS(N)(=O)=O)[C@@H]4F)cc31)NCC2 [Compound 695] | ≤ 0.05
NS(=O)(=O)OC[C@H]1[C@H](F)[C@@H](Nc2ncncc2C(=O)c2cc3c(s2)CCCC32NCCc3ccc(C(F)(F)F)cc32)C[C@@H]1O (stereo partly drawn) [Compound 109] | 0.05 to 0.2
C=Cc1sc(C(=O)c2cncnc2N[C@H]2C[C@H](O)[C@@H](COS(N)(=O)=O)[C@@H]2F)cc1C1NCCc2ccc(Cl)cc21 (stereo partly drawn) [Compound 261] | 0.05 to 0.2
NS(=O)(=O)OC[C@H]1[C@H](F)[C@@H](Nc2ncncc2C(=O)c2cc3c(s2)C=C[C@]32OCCc3ccc(F)cc32)C[C@@H]1O [Compound 758] | ≤ 0.05
NS(=O)(=O)OC[C@H]1[C@H](F)[C@@H](Nc2ncncc2C(=O)c2cc3c(s2)CCC32NCCc3cc(F)c(Cl)c(F)c32)C[C@@H]1O (stereo partly drawn) [Compound 158] | 0.05 to 0.2
NS(=O)(=O)OC[C@H]1[C@H](F)[C@@H](Nc2ncncc2C(=O)c2cc3c(s2)OCC32NCCc3ccc(F)cc32)C[C@@H]1O (stereo partly drawn) [Compound 142] | > 0.2
NS(=O)(=O)OC[C@H]1[C@H](F)[C@@H](Nc2ncncc2C(=O)c2cc3c(s2)CCC32NCCc3cc(Cl)c(F)cc32)C[C@@H]1O (stereo partly drawn) [Compound 159] | 0.05 to 0.2
NS(=O)(=O)OC[C@H]1[C@H](F)[C@@H](Nc2ncncc2C(=O)c2nc3c(s2)CCCC32NCCc3ccc(Cl)cc32)C[C@@H]1O (stereo partly drawn) [Compound 585] | > 0.2
Cc1sc(C(=O)c2cncnc2N[C@H]2C[C@H](O)[C@@H](COS(N)(=O)=O)[C@@H]2F)cc1C1NCCc2cc(F)c(Cl)c(F)c21 (stereo partly drawn) [Compound 251] | 0.05 to 0.2
Cc1sc(C(=O)c2cncnc2N[C@H]2C[C@H](O)[C@@H](COS(N)(=O)=O)[C@@H]2F)cc1C1NCCc2cc(Cl)ncc21 (stereo partly drawn) [Compound 254] | 0.05 to 0.2
NS(=O)(=O)OC[C@H]1[C@H](F)[C@@H](Nc2ncncc2C(=O)c2cc3c(s2)CSC[C@@]32NCCc3ccc(Cl)nc32)C[C@@H]1O [Compound 610] | > 0.2
NS(=O)(=O)OC[C@H]1[C@H](F)[C@@H](Nc2ncncc2C(=O)c2cc3c(s2)CN(C2CC2)C[C@]32OCCc3ccc(F)cc32)C[C@@H]1O [Compound 740] | ≤ 0.05
NS(=O)(=O)OC[C@H]1[C@H](F)[C@@H](Nc2ncncc2C(=O)c2cc3c(s2)COCC32NCCc3ccccc32)C[C@@H]1O (stereo partly drawn) [Compound 97] | > 0.2

Same assay, conditions: numeric values, 6 h at 37° C.

Compound | IC50 [µM]
NS(=O)(=O)OC[C@H]1[C@H](F)[C@@H](Nc2ncncc2C(=O)c2cc3c(s2)COC[C@@]32NCCc3ccc(Cl)cc32)C[C@@H]1O [Compound 104] | > 1
C#CCN1Cc2sc(C(=O)c3cncnc3N[C@H]3C[C@H](O)[C@@H](COS(N)(=O)=O)[C@@H]3F)cc2[C@]2(C1)NCCc1ccc(Cl)cc12 [Compound 659] | 0.0203
NS(=O)(=O)OC[C@H]1[C@H](F)[C@@H](Nc2ncncc2C(=O)c2cc3c(s2)CSC[C@@]32NCCc3ccc(Cl)cc32)C[C@@H]1O [Compound 301] | > 1
CN1Cc2sc(C(=O)c3cncnc3N[C@H]3C[C@H](O)[C@@H](COS(N)(=O)=O)[C@@H]3F)cc2[C@]2(C1)NCCc1ccc(Cl)cc12 [Compound 578] | 0.0292
